Experimental data reported in US7049311B1, “Pyrrolbenzodiazepines” (Spirogen Limited, priority 1998, dated 2006).
Read-outs that look alike come from different tables or passages of the source.

Assays:
HCC-2998 = assay: NCI in vitro cytotoxicity screen; type: cell-based; details: Homo sapiens, HCC 2998, 48 h, read-out: LC50
In short: (§1)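 SRB read-out after 48 h continuous compound exposure; LC50 = dose killing half the cells. Cells plated 5000-40,000/well, 24 h preincubation at 37° C. Five 10-fold concentrations, 10^−4 to 10^−8 […].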

MALME-3M = assay: NCI in vitro cytotoxicity screen; type: cell-based
In short: as §1

NCI-H460 = assay: NCI in vitro cytotoxicity screen; type: cell-based; details: Homo sapiens; NCI-H460 (Lung), 48 hour exposure, SRB assay; read-out: LC50 (the source's name)
In short: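 Steps: seed cells (5000-40,000/well), preincubate 24 h, 37° C; add compound at 10^−4, 10^−5, 10^−6, 10^−7, 10^−8 […]; incubate 48 h, 5% CO2, 100% humidity; stain with SRB, read OD; derive LC50.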

SNB-75 = assay: NCI in vitro cytotoxicity screen; type: cell-based; details: Homo sapiens, SNB-75, 48 h, read-out: LC50
In short: as §1

UACC-62 = assay: NCI in vitro cytotoxicity screen; type: cell-based
In short: as §1

[1] = tested on: OVCAR-5 (human ovarian tumour); assay: NCI human xenograft study; type: in vivo, mice
Experimental: (§2) These are carried out on nucle athymic mice with a disabled immune system. The human tumour tissue to be tested is implanted in their flanks, and whilst the control mouse receives no treatment, the others are subjected to varying doses of the test compound, which is administered intraperitoneally. The results are expressed as the toxicity of the compound, the amount of tumour growth, and the inhibition of growth.
(§3) Athymic nude mice bearing MDA-MB-435 xenografts (human mammary tumour), Ovcar-3 (human ovarian tumour), UACC-62 (human melanoma) or OVCAR-5 (human ovarian tumour) were treated at doses of 0.67 (high), 0.45 (middle) and 0.3 (low) mg/kg/injection given once every 4th day for a total of 3 doses (6 mice per dose level with 20 controls).
(§4) UP2001 (80) was evaluated by measuring the toxicity of the drug and its ability to retard tumour growth.
(§5) Toxicity represents the number of mice which died as a result of treatment. % T/C represents the width of the tumours in the “test” mice (T) (as measured with calipers) compared to control untreated mice (C) and presented as a percentage. % Growth Delay represents the increase in the amount of time taken for the tumors to reach an arbitrary size of 250 mg.

[2] = tested on: Ovcar-3 (human ovarian tumour); assay: NCI human xenograft study; type: in vivo, mice
Experimental: as §2, §3, §4, §5

A2780cisR = assay: Cytotoxicity in cisplatin-resistant A2780cisR (Example 9); type: cell-based, human; details: for IC50: Homo sapiens, A2780cisR, 96 h
Experimental: Relative to the parental line, the A2780cisR subline is known to have elevated GSH levels, an increased level of repair of DNA-cisplatin adducts, and a decreased ability to uptake cisplatin (M. Smellie, et al., Br. J. Cancer, 1994, 70, 48).
The results, which were obtained by incubating the cells with the compounds for 96 hours at 37° C., and assessing the cell number using Sulforhodamine B, are presented in the table below: […]

CH1cisR = assay: Ovarian carcinoma cytotoxicity assay; type: cell-based; details: Homo sapiens, CH1cisR, 96 h, read-out: IC50 CH1cisR
In short: (§6)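 Cells attached overnight, then read 96 hours later by sulphorhodamine B staining of TCA-fixed cells, with absorbance at 540 nm. IC50 taken from concentration versus % absorbance relative to untreated wells; cisR lines are cisplatin-resistant.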

CH1 = assay: Ovarian carcinoma cytotoxicity assay; type: cell-based; details: Homo sapiens, CH1, 96 h, read-out: IC50 CH1
In short: as §6

SKOV-3 = assay: Ovarian carcinoma cytotoxicity assay; type: cell-based; details: Homo sapiens, SK-OV-3, 96 h, read-out: IC50 Skov3
In short: as §6

SMILES: C=C1C[C@H]2C=Nc3cc(OCCCOc4cc5c(cc4OC)C(=O)N4CC(=C)C[C@H]4C=N5)c(OC)cc3C(=O)N2C1 [UP2001 (80)]
- CC50 (HCC-2998): 99 nM
- CC50 (MALME-3M; Homo sapiens, Malme-3M, 48 h, read-out: LC50, MALME-3M (Melanoma), 48 hour exposure, SRB assay): 80 nM
- CC50 (MALME-3M; read-out: LC50, MALME-3M (Melanoma), 48 hour exposure, SRB assay): 73 nM
- CC50 (NCI-H460): 2700 nM
- CC50 (SNB-75): 7500 nM
- CC50 (UACC-62; Homo sapiens, UACC-62, 48 h, read-out: LC50, UACC-62 (Melanoma), 48 hour exposure, SRB assay): 70 nM
- CC50 (UACC-62; read-out: LC50, UACC-62 (Melanoma), 48 hour exposure, SRB assay): 77 nM
- % T/C Low ([1]; OVCAR-5, 0.3 mg/kg/injection once every 4th day, 3 doses): 38%
- Toxicity Low ([1]; OVCAR-5, 0.3 mg/kg/injection once every 4th day, 3 doses, mice which died as a result of treatment): 0/6
- % Growth Delay Low ([1]; OVCAR-5, 0.3 mg/kg/injection, time for tumours to reach 250 mg): 32%
- % T/C Mid ([1]; OVCAR-5, 0.45 mg/kg/injection once every 4th day, 3 doses): 45%
- Toxicity Mid ([1]; OVCAR-5, 0.45 mg/kg/injection once every 4th day, 3 doses, mice which died as a result of treatment): 0/6
- % Growth Delay Mid ([1]; OVCAR-5, 0.45 mg/kg/injection, time for tumours to reach 250 mg): 28%
- % T/C High ([1]; OVCAR-5, 0.67 mg/kg/injection once every 4th day, 3 doses): 52%
- Toxicity High ([1]; OVCAR-5, 0.67 mg/kg/injection once every 4th day, 3 doses, mice which died as a result of treatment): 0
- % Growth Delay High ([1]; OVCAR-5, 0.67 mg/kg/injection, time for tumours to reach 250 mg): 16%
- tumour size reduction ([1]; OVCAR-5 xenografts, dose not given): approximately 50%
- % T/C Low ([2]; 0.3 mg/kg/injection once every 4th day, 3 doses): 46%
- Toxicity Low ([2]; 0.3 mg/kg/injection once every 4th day, 3 doses, mice which died as a result of treatment): 0/6
- % Growth Delay Low ([2]; 0.3 mg/kg/injection, time for tumours to reach 250 mg): 9%
- % T/C Mid ([2]; 0.45 mg/kg/injection once every 4th day, 3 doses): 20%
- Toxicity Mid ([2]; 0.45 mg/kg/injection once every 4th day, 3 doses, mice which died as a result of treatment): 0/6
- % Growth Delay Mid ([2]; 0.45 mg/kg/injection, time for tumours to reach 250 mg): 73%
- % T/C High ([2]; 0.67 mg/kg/injection once every 4th day, 3 doses): 7%
- Toxicity High ([2]; 0.67 mg/kg/injection once every 4th day, 3 doses, mice which died as a result of treatment): 0/6
- % Growth Delay High ([2]; 0.67 mg/kg/injection, time for tumours to reach 250 mg): 73%
- fold more potent than DSB-120 (A2780cisR; A2780cisR cell line): ~9,000 fold
- IC50 (A2780cisR; read-out: IC50 A2780cisR): 0.024 nM
- IC50 (A2780cisR; read-out: IC50 A2780cis^a): 0.024 nM
- IC50 (CH1cisR): 0.6 nM
- IC50 (CH1): 0.12 nM
- IC50 (SKOV-3): 9.1 nM
